What all share (test): growth of human tumour cells (NCI), 48 h
The subject of assay [1] is 786-0 renal.
Assay [2] concerns SR leukemia.
The test system of assay [3] is T-47D breast.
Assay [4] concerns SK-MEL-2 melanoma.
The subject of assay [5] is UACC-62 melanoma.
The subject of assay [6] is TK-10 renal.
For assay [7], the system named is OVCAR-4 ovarian.
In assay [8] the test system is EKVX NSCLC.
Assay [9] relates to PC-3 prostate.
For assay [10], the system named is OVCAR-3 ovarian.

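Where inhibition never reached the appropriate level, the endpoint shown equals the highest concentration tested. Otherwise, values were interpolated linearly from a five-concentration, 48-hour dose response in 96-well plates. The concentration for 50% growth inhibition is given as GI50. TGI: total growth inhibition.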

On to `Cc1cc2c(C(C)C)c(O)c(O)c(/C=N/O)c2c(O)c1-c1c(C)cc2c(C(C)C)c(O)c(O)c(/C=N/O)c2c1O`, for which the GI50 was 3.22 µM in [1]; 3.22 µM in assay [2]; 2 µM in assay [3]; 3.47 µM in assay [4]; 2.15 µM in assay [5]; 3.13 µM in [6]. Also, the GI50 is 1.33 µM in assay [7], 1.94 µM in assay [8], 2.8 µM in [9] and 1.69 µM in assay [10]. Besides, the TGI in assay [1] is 13.3 µM; in [2] it was 13.5 µM; in [3], 8.42 µM; in assay [4] it was 13.8 µM; in [5], 5.23 µM; in [6], 13.7 µM. Moreover, the TGI in assay [7] is 9.69 µM; in [8], 11.4 µM; in assay [9] it was 13.5 µM; in assay [10], 10.1 µM.
For the molecule `C/C=C(/C)C(=O)OC1C=C(CO)C(=O)C(OC(=O)C2(C)OC2C)C1C(C)C` (stereo not given), the GI50 was 1.79 µM in [1]; 0.778 µM in assay [2]; 1.27 µM in assay [3]; 1.85 µM in assay [4]; 1.33 µM in [5]; 1.88 µM in assay [6]. Moreover, the GI50 in assay [7] is 1.93 µM; in assay [8], 2.75 µM; in [9] it was 1.75 µM; in [10], 1.17 µM. The TGI is 3.24 µM in [1]; 8.2 µM in assay [2]; 2.79 µM in assay [3]; 3.59 µM in [4]; 2.68 µM in assay [5]; 3.36 µM in [6]. In addition, the TGI in assay [7] turned out to be 3.91 µM; in [8] it was 7.63 µM; in assay [9] it was 4.5 µM; in assay [10], 2.45 µM.
Consider `C/C(=N\O)C1CC(CC(=O)O)C1(C)C` (stereo not given), for which the TGI in assay [1], in assay [2], in assay [3], in [4], in assay [5] and in assay [6] was over 100 µM throughout. In addition, the TGI in assay [7], in [8], in assay [9] and in [10] was over 100 µM in each case.
In the case of `Cn1cc(Nc2nccc(-c3ccc4c(c3)CN(C3COC3)CC[C@H]4NC(=O)c3cn(C(C)(C)C)nn3)n2)cn1`, the GI50 in [1] was 50.5 µM; in assay [2], over 100 µM; in [3], 47.9 µM; in assay [4], over 100 µM; in assay [5], 23.1 µM; in [6] it was 59.5 µM. The GI50 in assay [7], in assay [8], in assay [9] and in assay [10] was over 100 µM each time. Also, the TGI in assay [1], in [2], in assay [3], in assay [4], in assay [5] and in assay [6] was over 100 µM throughout. For the same molecule, the TGI in [7], in assay [8], in [9] and in [10] was over 100 µM each time.
On to `Cc1[nH]c(N)nc(=S)c1CCCNc1ccccc1`, for which the TGI was over 100 µM in [1]; 96.9 µM in [2]; over 100 µM in assay [3]; over 100 µM in assay [4]; over 100 µM in assay [5]; over 100 µM in assay [6]. Besides, the TGI in assay [7], in assay [8], in assay [9] and in assay [10] was over 100 µM in each case.
As for `Cc1ccc(/C=C(/C#N)n2nnc3cccc(F)c32)cc1`, the GI50 was 0.384 µM in assay [1]; 0.122 µM in assay [2]; 0.509 µM in assay [3]; 0.522 µM in assay [4]; 0.32 µM in assay [5]; 1.22 µM in [6]. Further, the GI50 in assay [7] was 1.01 µM; in assay [8], 0.863 µM; in assay [9] it was 0.412 µM; in assay [10], 0.227 µM. For the same molecule, the TGI in assay [1] is 14.1 µM; in assay [2], over 35.5 µM; in assay [3] it was over 100 µM; in [4], 19 µM; in assay [5], 11.1 µM; in assay [6] it was 13 µM. Besides, the TGI was 33.1 µM in assay [7], 18.7 µM in [8], 14.6 µM in assay [9] and 0.536 µM in assay [10].
As for `COC(=O)C1C(=O)C(C(=O)OC)C2CCC1N2C` (stereo not given), the TGI in assay [1] was over 100 µM; in assay [2] it was over 100 µM; in [3] it was over 100 µM; in [4] it was 63.5 µM; in assay [5], over 100 µM; in assay [6], over 100 µM. For the same molecule, the TGI in [7] is over 100 µM; in assay [8] it was over 100 µM; in assay [9], over 100 µM; in assay [10] it was over 72.1 µM.
Regarding `c1ccc(C2=Nc3ccccc3N3CNN=C23)cc1`, the GI50 is over 100 µM in assay [1]; 25 µM in assay [2]; 74.8 µM in assay [3]; over 100 µM in assay [4]; over 100 µM in [5]; 79.4 µM in assay [6]. Moreover, the GI50 in [7] is over 100 µM; in assay [8], 47.9 µM; in assay [9] it was over 100 µM; in [10] it was 84.4 µM. The TGI in assay [1], in assay [2], in [3], in assay [4], in assay [5] and in assay [6] was over 100 µM throughout. Besides, the TGI in assay [7], in assay [8], in assay [9] and in assay [10] was over 100 µM throughout.
